Assay results taken from patent publication US20200010413A1, “Benzoquinone derivatives for treatment of cancer and methods of making the benzoquinone derivatives” (United Arab Emirates University, priority 2016, published 2020).
One block for each molecule: values may come before it.

Experiments:
[1] = system: breast cancer cells (MCF-7); test: MTT cell viability assay, MCF-7; format: cell-based, human; conditions: for loss of cell viability: MCF-7, 72 hours, BQs 1.0-25.0 μM, relative to control (DMSO)
Procedure: (§1) Human cancer cell lines were purchased from Hyclone Laboratories, Utah, USA. Pancreatic cancer cells (L3.6pl and MiaPaCa-2) and breast cancer cells (MCF-7) were maintained in DMEM while lung cancer cells (H1299) and prostate cancer cells (C42B) were maintained in RPMI 1640 media. All media were supplemented with antibiotics (penicillin 50 U/ml; streptomycin 50 μg/ml) and 10% fetal bovine serum (FBS, Biowest, Nouaille, France).
(§2) BQs were tested for their antiprolifrative activity in vitro using MTT assay on human pancreatic cancer cells (L3.6pl and MiaPaCa-2), human lung cancer cells (H1299), human breast cancer cells (MCF-7) and human prostate cancer cells (C42B).
(§3) The cell viability test was conducted by seeding pancreatic (L3.6pl and MiaPaCa-2), lung (H1299), breast (MCF-7) and prostate (C42B) cancer cells into 96-well culture plates at a density of 3×10^3 cells per well. Cells were then exposed to increasing doses (0-25 μM) of BQs for 72 hrs and MTT assay was performed using thymoquinone as a positive control in all experiments. The results were plotted as means±SD of at least three separate experiments using six determinations per experiment. Data were presented as proportional viability (%) by comparing the treated group with the untreated cells whose viability is assumed to be 100%. IC50s of the BQs were estimated from the linear plots of concentrations versus cell viabilities.

[2] = system: examined cancer cell lines; test: MTT cell viability assay, cell line not given (panel); format: cell-based; conditions: Homo sapiens; cell line not specified
Procedure: as §1, §2, §3

[3] = system: telomeric G-quadruplex DNA; test: Melting temperature curves by CD, G-quadruplex-BQs complexes; format: binding, human; conditions: for selectivity towards G-quadruplex over ct-DNA: from differences between ΔTm (G-quadruplex) and ΔTm (ct-DNA); for Tm of G-quadruplex-BQ complex / ΔTm of G-quadruplex-BQ complex: CD, equimolar BQ, Tris-KCl buffer pH 7.4
Procedure: (§4) Melting temperature curves for telomere G-quadruplex, ct-DNA and their BQs' adducts were constructed using CD spectral measurements. A 1.0 ml telomeric G-quadruplex (3.93×10^−6 M) or ct-DNA (100.00 ppm) in Tris-KCl-buffer, pH 7.4 was heated in the range 25-95° C. applying 2.0-5.0° C. increments and using 5 min incubation time intervals. The CD spectra in the range 200-400 nm were recorded at each temperature using the scan parameters described in previous section. BQs complexes with G-quadruplex or ct-DNA were prepared by mixing equimolar amounts of G-quadruplex (1.44×10^−4 M) with BQs (1×10^−4 M) or ct-DNA (1000 ppm) with BQs (1×10^−4 M) solution in 1.0 ml KCl-buffer pH 7.4. Solutions were incubated for 30 min before scan. Collected CD spectra were smoothed and baseline corrected against blank solution. Intensities of CD peaks for G-quadruplex, ct-DNA and their BQs' complexes at 293 and 282 nm were recorded. Plots of CD intensities versus temperature were constructed.

[4] = system: prostate cancer cells (C42B); test: MTT cell viability assay, C42B; format: cell-based, human; conditions: for loss of cell viability: 72 hours, BQs 1.0-25.0 μM, relative to control (DMSO); for IC50: Homo sapiens, 72 hrs
Procedure: as §1, §2, §3

[5] = system: pancreatic cancer cells (MiaPaCa-2); test: MTT cell viability assay, MiaPaCa-2; format: cell-based, human; conditions: for IC50: Homo sapiens, MIA PaCa-2, MiaPaCa-2, 72 hrs
Procedure: as §1, §2, §3

[6] = system: lung cancer cells (H1299); test: MTT cell viability assay, H1299; format: cell-based, human; conditions: for inhibition in cell viability: H1299, 72 hours, BQs 1.0-25.0 μM, relative to control (DMSO)
Procedure: as §1, §2, §3

[7] = system: telomeric G-quadruplex DNA AGGG(TTAGGG)3; test: UV-Vis absorption titration, Scatchard plot and molar ratio method; format: binding, human; conditions: Scatchard plot of UV-Vis titration, Tris-KCl buffer pH 7.4
Procedure: Telomeric G-quadruplex DNA was prepared by heating gently 2.0 ml of stock single stranded 5′-[…]-3′ DNA (SEQ ID NO: 1) up to 95.0° C. Resultant solution was incubated at 95.0° C. for 10 min. The solution was left to cool gently down to room temperature, then kept in fridge at 4.0° C. overnight before use. A 10^−5 M fluorescein labeled G-quadruplex DNA was prepared similarly using 5′-Flu-telomeric DNA.
Successive amounts of G-quadruplex DNA (AGGG(TTAGGG)3, 1.44×10^−4 M) were added to 1.00 ml of each BQ (5×10^−6 M) in Tris-KCl buffer, pH 7.4. Solution was shacked well after each addition, incubated for 3 min at room temperature and its absorbance was scanned in the range 200-600 nm. Titration was stopped when no change in absorbance was observed. The experiment was reversed by adding successive amounts of the each BQ (1×10^−3 M) to 1.0 ml of 4×10^−6 M G-quadruplex DNA.
The molar ratio method based on measuring UV-Vis absorption was used for determining stoichiometry of G-quadruplex DNA interactions with BQs. A 1.00 ml BQs (5×10^−6 M) was titrated with telomere G-quadruplex (1.44×10^−4 M) in Tris-KCl buffer, pH 7.4. […] A plot of absorbance versus molar ratio [BQs]/[DNA] was constructed. […]
where Af, A and Ab are the absorbance at zero addition, after each addition and at saturation, respectively. […]

ct-DNA (calf thymus DNA) = test: Melting temperature curves by CD, ct-DNA-BQs complexes; format: binding; conditions: Tris-KCl buffer pH 7.4
Procedure: Calf thymus ds-DNA (1000 μg/ml; 8×10^−8 M) was prepared by dissolving 10.0 mg of DNA into 10.0 ml Tris-KCl buffer, pH 7.4, without sonication or stirring. To prevent shearing of the large genomic DNA, the solution was gently inverted overnight at 4.0° C. to completely solubilize the DNA. Solutions of DNA are stable for several months at 4.0° C. in Tris-KCl buffer pH 7-8.
as §4, with “scan.” for “scan. Collected CD spectra were smoothed and baseline corrected against blank solution. Intensities of CD peaks for G-quadruplex, ct-DNA and their BQs' complexes at 293 and 282 nm were recorded. Plots of CD intensities versus temperature were constructed.”
Collected CD spectra were smoothed and baseline corrected against blank solution. Intensities of CD peaks for G-quadruplex, ct-DNA and their BQs' complexes at 293 and 282 nm were recorded. Plots of CD intensities versus temperature were constructed.

[8] = system: pancreatic cancer cells (L3.6pl); test: MTT cell viability assay, L3.6pl; format: cell-based, human
Procedure: as §1, §2, §3

SMILES: O=C1C=C(Nc2ccccc2)C(=O)C=C1Nc1ccccc1 [BQ5, 2,5-bis-anilino-1,4-benzoquinone]
selectivity towards G-quadruplex over ct-DNA ([3]; listed as BQS): 3.5 folds
loss of cell viability [4]: 27.25%
IC50 [4]: 42.1 µM
melting point: 342 to 345 °C

SMILES: O=C1C=C(NCCN2CCOCC2)C(=O)C=C1NCCN1CCOCC1 [BQ7, 2,5-bis((2-morpholinoethyl)amino)-1,4-benzoquinone]
loss in cell viability ([5]; MiaPaCa-2, 72 hours, BQs 1.0-25.0 μM, relative to control (DMSO)): 7.53%
inhibition in cell viability [6]: 20.81%
loss of cell viability [4]: 1.29%
melting point: 184 to 188 °C

SMILES: O=C1C=C(Nc2cccc(C(F)(F)F)c2)C(=O)C=C1Nc1cccc(C(F)(F)F)c1 [BQ1, 2,5-bis-(3-trifluoromethylanilino)-1,4-benzoquinone]
binding constant (K) towards G-quadruplex DNA [7]: 728000 M⁻¹
Tm of G-quadruplex-BQ complex [3]: 75.5 °C
ΔTm of G-quadruplex-BQ complex [3]: 7.5 °C
Melting temperature shift (ΔTm) of ct-DNA on BQ binding (ct-DNA (calf thymus DNA)): 5.8 °C
IC50 [4]: 43.2 µM
melting point: 280 to 282.5 °C

SMILES: O=C1C=C(Nc2ccc(F)cc2)C(=O)C=C1Nc1ccc(F)cc1 [BQ4, 2,5-bis-(4-fluoroanilino)-1,4-benzoquinone]
Tm of G-quadruplex-BQ complex [3]: 68.1 °C
ΔTm of G-quadruplex-BQ complex [3]: 0.1 °C
IC50 ([6]; Homo sapiens, NCI-H1299, H1299, 72 hrs): 7.48 µM
melting point: > 350 °C

SMILES: O=C1C=C(Nc2cc(F)c(F)c(F)c2)C(=O)C=C1Nc1cc(F)c(F)c(F)c1 [BQ2, 2,5-bis-(3,4,5-trifluoroanilino)-1,4-benzoquinone]
melting point: > 350 °C

SMILES: COc1ccc(NC2=CC(=O)C(Nc3ccc(OC)cc3)=CC2=O)cc1 [BQ3, 2,5-bis-(4-methoxylanilino)-1,4-benzoquinone]
selectivity towards G-quadruplex over ct-DNA [3]: low selectivity
ΔTm, G-quadruplex versus ct-DNA ([3]; stabilized both G-quadruplex and ct-DNA): ~0.2 °C
Melting temperature shift (ΔTm) of ct-DNA on BQ binding (ct-DNA (calf thymus DNA)): 3.8 °C
IC50 [5]: 7.68 µM
melting point: 323 to 325 °C

Second part, led by results:

melting point: 254.5 to 256 °C
SMILES: O=C1C=C(NCc2ccccc2)C(=O)C=C1NCc1ccccc1 [BQ13, 2,5-bis-(benzylamino)-1,4-benzoquinone]

IC50 ([1]; Homo sapiens, MCF7, MCF-7, 72 hrs): 8.04 µM
IC50 [2]: < 10 µM
melting point: 271 to 274 °C
SMILES: O=C1C=C(NCc2ccc(C(F)(F)F)cc2)C(=O)C=C1NCc1ccc(C(F)(F)F)cc1 [BQ10, 2,5-bis-(4-trifluoromethylbenzylamino)-1,4-benzoquinone]

melting point: 237 to 239 °C
SMILES: O=C1C=C(NCc2cc(C(F)(F)F)cc(C(F)(F)F)c2)C(=O)C=C1NCc1cc(C(F)(F)F)cc(C(F)(F)F)c1 [BQ14, 2,5-bis-(3,5-ditrifluoromethylbenzylamino)-1,4-benzoquinone]

IC50 [2]: < 10 µM
melting point: 159 to 162 °C
SMILES: O=C1C=C(NCCN2CCCC2)C(=O)C=C1NCCN1CCCC1 [BQ9, 2,5-bis((2-(pyrrolidin-1-yl)ethyl)amino)-1,4-benzoquinone]
inhibition in cell viability [6]: 84.40%
loss of cell viability [1]: 92.50%

melting point: 256.5 to 258.5 °C
SMILES: COc1ccc(CNC2=CC(=O)C(NCc3ccc(OC)c(OC)c3)=CC2=O)cc1OC [BQ12, 2,5-bis-(3,4-dimethoxybenzylamino)-1,4-benzoquinone]
loss of cell viability [1]: 24.16%

melting point: 289 to 291 °C
SMILES: O=C1C=C(NC2CCCC2)C(=O)C=C1NC1CCCC1 [BQ8, 2,5-bis-(cyclopentylamino)-1,4-benzoquinone]
inhibition in cell viability ([8]; 72 hours, BQs 1.0-25.0 μM, relative to control (DMSO)): 26.97%

IC50 ([8]; Homo sapiens, 72 hrs): 9.67 µM
IC50 [5]: 6.18 µM
IC50 [2]: < 10 µM
melting point: 248 to 250 °C
SMILES: O=C1C=C(NCc2ccc(F)cc2)C(=O)C=C1NCc1ccc(F)cc1 [BQ11, 2,5-bis-(4-fluorobenzylamino)-1,4-benzoquinone]
Tm of G-quadruplex-BQ complex [3]: lowest
